Test results taken from US6951647B2, “T cell binding ligand peptides and method of inducing a cellular immune response” (Cel-Sci Corporation, priority 2001, dated 2005).
Values joined by “and” are separate entries in the source; they are usually repeats but may differ in a detail not shown here. Identical values can stand only once. Marks after values point to notes of the source that are not given here.

Tests used:
[1] = tested on: modified HGP-30 (mH, SEQ ID NO:6); experiment: Isotype analysis (ELISA) of anti-mH antibody in sera of immunized mice; type: in vivo; parameters: IgG1 / IgG2a / IgG2b / IgG3: unit not given here; conditions: ELISA signal, day 42 test bleeding
Procedure: (§1) Mice in groups (5-10 animals per group as designated) are immunized with the LEAPS constructs (25 μg/dose) of SEQ ID NO's:37, 38 and 39, in 0.2 mL emulsified 1:1 with adjuvant (Seppic's ISA-51 or Corixa's microfluidized MPL S/E) on days 0 and 14. Mice are evaluated by Delayed Type of Hypersensitivity (DTH) by inoculation on day 26 with 20 μl of a solution of saline or mH (SEQ ID NO:6) (25 μg in saline) in the left or right ear respectively. The DTH response is determined by measurement of the ear thickness 48 hours later and expressed as increase in ear thickness (mm) of experimental ear compared to that of the control ear. Individual animal sera are collected for measurement of antibody on day 28, 42, 63 and 77. Sera from individual animals and group pools are evaluated for specific anti-mH antibody, for total antibody, IgG1, IgG2a and IgG3 antibody isotype and cross clade titer at selected time points as indicated.
The results of an isotype analysis of day 42 test bleedings with G′-mH (SEQ ID NO:37), G-mH (SEQ ID NO:38), J-mH (SEQ ID NO:39), F-mH (SEQ ID NO:40) and F-HGP-30 (SEQ ID NO:41), are shown in Table 1.
An isotype analysis for pools of day 28 test bleedings G-mH, G′-mH and m-HGP-30/KLH using either MPL S/E or ISA51 as adjuvant, are shown in Table 3.

E Clade = experiment: ELISA cross clade recognition by sera of immunized mice, E Clade; type: in vivo; conditions: day 63 test bleeding, sera 1:200, individual mouse
Procedure: as §1
(§2) The mouse sera for the ELISA was used at a dilution of 1:200. Again, clearly, the construct provides higher signals indicative of higher levels of the antibodies that recognized other clades besides the parental one (Clade B) of mH.
(§3) A cross clade analysis for pools of day 42 test bleedings from the same groups as used in Table 3, were obtained and the results are shown in Table 4.

modified HGP-30 [2] = experiment: ELISA antibody screening of sera of immunized mice on modified HGP-30; type: in vivo; conditions: day 63 test bleeding, sera 1:200, individual mouse
Procedure: as §1, with “indicated. […]” for “indicated.”

B Clade = experiment: ELISA cross clade recognition by sera of immunized mice, B Clade; type: in vivo; conditions: day 63 test bleeding, sera 1:200, individual mouse
Procedure: as §1, §2, §3

C Clade = experiment: ELISA cross clade recognition by sera of immunized mice, C Clade; type: in vivo; conditions: day 63 test bleeding, sera 1:200, individual mouse
Procedure: as §1, §2, §3

modified HGP-30 [3] = experiment: Delayed Type Hypersensitivity (DTH) ear thickness response with antisera depletion of CD4 or CD8 cells; type: in vivo, Mice
Procedure: as §1
Select immunoglobulin preparations were obtained from Dr. Stephen Hoffmann, Malaria Program, U.S. Navy. […] This allows one to determine some parts of the nature of various cellular (e.g., T-cell) involvement in the early stage of immune system response with the LEAPS peptide-constructs. It is recognized, however, that this is only a temporary event since new cells are continuously being developed from stem cells and the animals become resistant to the reagents.
The animals are pretreated with the antisera as indicated for 5 days before the initial immunization with peptide-construct having SEQ ID NO:37 or SEQ ID NO:39 on […]. No pretreatment is done before the booster immunization on day 14 or DTH on day 26-28. The mice are then inoculated with the test antigen or saline (control) on day 26 in the left and right ears, respectively, and the DTH response is measured on day 28. The difference between the values for the test and saline control ears is calculated for each group of five animals along with the standard error of the mean (sem) and the results are plotted (see FIG. 1). Also shown in FIG. 1 are values for the untreated animals and animals immunized on day 14 only.
The DTH (Delayed Type Hypersensitivity) data is statistically significant with a t-test of 0.05 for SEQ ID NO:39 and anti-CD8. The DTH for pretreatment of SEQ ID NO:37 immunized mice with anti-CD4 was just above the cutoff limit for statistical significance due to a weaker DTH response and small group size.

D Clade = experiment: ELISA cross clade recognition by sera of immunized mice, D Clade; type: in vivo; conditions: day 63 test bleeding, sera 1:200, individual mouse
Procedure: as §1, §2, §3

[4] = Day 14 Injection Only (immunized with construct on day 14 only), average of group of 5 mice
[5] = Treatment Anti CD4, daily for 5 days before immunization, average of group (5 mice)
[6] = Treatment Anti CD8, daily for 5 days before immunization, average of group of 5 mice
[7] = Treatment None, average of group (5 mice), ISA 51 adjuvant
[8] = Treatment Normal rat IgG, daily for 5 days before immunization, average of group (5 mice)

Substance: DLL KNG ERI EKV EGG GAT LYS VHQ RID VKD TKE ALE KIE EEQ NKS (DGQEEKAGVVSTGLIGGGQYSWFVNGTF) [SEQ ID NO: 59, Peptide J linked by GGG spacer to modified HGP-30 (mH)]
- IgG1 ([1]; group Average): 0.717
- IgG2a ([1]; group Average): 0.046
- IgG2b ([1]; group Average): 0.019
- IgG3 ([1]; group Average): 0.070
- IgG1 ([1]; individual mouse): 0.002 and 1.603 and 0.014 and 2.023 and 2.199 and 0.053 and 0.057 and 0.505 and 0.000
- IgG2a ([1]; individual mouse): 0.002 (2×) and 0.027 and 0.000 (2×) and 0.299 and 0.060 and 0.014 and 0.011
- IgG2b ([1]; individual mouse): 0.002 and 0.014 and 0.000 (5×) and 0.113 and 0.039
- IgG3 ([1]; individual mouse): 0.017 and 0.032 and 0.009 and 0.227 and 0.324 and 0.000 (2×) and 0.003 and 0.016
- ELISA signal on E Clade (E Clade): 2.431 and 1.565 and 0.789 and 0.788 and 0.554 and 0.722 and 0.142 and 1.379 and 2.379
- ELISA signal on modified HGP-30 (modified HGP-30 [2]): 0.440 and 0.011 and 0.753 and 0.905 and 0.793 and 0.100 and 0.035 and 0.000 (2×)
- ELISA signal on B Clade (B Clade): 0.262 and 0.000 (6×) and 0.575 and 0.026
- ELISA signal on C Clade (C Clade): 2.421 and 1.699 and 1.295 and 0.969 and 0.665 and 0.780 and 0.171 and 1.370 and 2.322
- Left Ear thickness, inoculated day 26 with HGP-30, measured after 48 hours (modified HGP-30 [3]; [4]): 0.254 mm
- Right Ear thickness, inoculated day 26 with saline, measured after 48 hours (modified HGP-30 [3]; [4]): 0.231 mm
- DTH % increase (L-R)/R (modified HGP-30 [3]; Day 14 Injection Only, average of group of 5 mice): 10.00%
- Left Ear thickness, inoculated day 26 with HGP-30, measured after 48 hours (modified HGP-30 [3]; [5]): 0.288 mm
- Right Ear thickness, inoculated day 26 with saline, measured after 48 hours (modified HGP-30 [3]; [5]): 0.240 mm
- DTH % increase (L-R)/R (modified HGP-30 [3]; Treatment Anti CD4, average of group (5 mice)): 20.00%
- Left Ear thickness, inoculated day 26 with HGP-30, measured after 48 hours (modified HGP-30 [3]; [6]): 0.233 mm
- Right Ear thickness, inoculated day 26 with saline, measured after 48 hours (modified HGP-30 [3]; [6]): 0.220 mm
- DTH % increase (L-R)/R (modified HGP-30 [3]; Treatment Anti CD8, average of group of 5 mice): 6.20%***
- DTH % increase (L-R)/R (modified HGP-30 [3]; Treatment None, average of group (5 mice)): 29.30%
- Left Ear thickness, inoculated day 26 with HGP-30, measured after 48 hours (modified HGP-30 [3]; [7]): 0.288 mm
- Right Ear thickness, inoculated day 26 with saline, measured after 48 hours (modified HGP-30 [3]; [7]): 0.222 mm
- Left Ear thickness, inoculated day 26 with HGP-30, measured after 48 hours (modified HGP-30 [3]; [8]): 0.296 mm
- Right Ear thickness, inoculated day 26 with saline, measured after 48 hours (modified HGP-30 [3]; [8]): 0.227 mm
- DTH % increase (L-R)/R (modified HGP-30 [3]; Treatment Normal rat IgG, average of group (5 mice)): 30.60%
- Type of cells required for a DTH response (modified HGP-30 [3]; cell specific antisera as depletion reagent for the primary immunization (FIG. 1)): requires the presence and presumably activation of CD8+ but not CD4+ cells
- ELISA signal on D Clade (D Clade): 0.120 and 0.004 and 0.196 and 0.000 (6×)
